In ChEMBL document CHEMBL4396911, “Recent progress in histone methyltransferase (G9a) inhibitors as anticancer agents” (Eur J Med Chem, 2019):
pIC50: −log10 of the molar value.

How the values were obtained:
PANC-1 [1] = assay: Cytotoxicity against human PANC1 cells assessed as decrease in cell viability after 72 hrs by MTT assay; type: functional, cell-based; settings: PANC-1, 72 h
PANC-1 [2] = assay: Anticancer activity against human PANC1 cells; type: functional, cell-based

pIC50 (PANC-1 [2]) | Compound | pIC50 (PANC-1 [1])
 | CCN(CC)CCNC(=O)c1ccc(NCCN2C(=O)c3ccccc3C2=O)cc1 | 5.30
5.30 | COC(=O)c1ccc2c(c1)nc(NC(=O)c1ccccc1)n2CCCc1ccccc1 | 
